ChEMBL document CHEMBL5550206, “Identification of 6-Fluorine-Substituted Coumarin Analogues as POLRMT Inhibitors with High Potency and Safety for Treatment of Pancreatic Cancer” (J Med Chem, 2024)
The source made the active and inactive calls. The rule behind the calls is not given here.

How the values were obtained:
[1] = Toxicity in BALB/c mouse xenografted with human MIA PaCa-2 cells assessed as pathological change in lung at 25 to 100 mg/kg, iv once daily for 25 consecutive day after 2 weeks of cells injection by H and E staining based optical microscopic analysis; assay type: organism-based; conditions: in vivo, 336 h, dose 25-100 mg/kg
[2] = tested on: MIA PaCa-2; assay: Induction of cell arrest in human MIA PaCa-2 cells assessed as viable cells at 200 nM measured after 4 days by Annexin V-FITC and propidium iodide (PI) staining based assay (reference value: 94.9%); assay type: functional; conditions: MIA PaCa-2, 96 h, time 4 day, read-out: Activity
[3] = tested on: PANC-1; assay: Antiproliferative activity against human PANC-1 cells assessed as cell viability measured after 168 hrs incubation by SRB assay; assay type: functional, cell-based; conditions: PANC-1, 168 h
[4] = tested on: MIA PaCa-2; assay: Induction of cell arrest in human MIA PaCa-2 cells assessed as necrotic cells at 100 nM measured after 4 days by Annexin V-FITC and propidium iodide (PI) staining based assay (reference value: 0.82%); assay type: functional; conditions: time 4 day
[5] = tested on: MIA PaCa-2; assay: Induction of cell arrest in human MIA PaCa-2 cells assessed as late apoptotic cells at 50 nM measured after 4 days by Annexin V-FITC and propidium iodide (PI) staining based assay (reference value: 3.23%); assay type: functional; conditions: time 4 day
[6] = tested on: MIA PaCa-2; assay: Induction of cell arrest in human MIA PaCa-2 cells assessed as accumulation of cells at G1 phase at 25 nM measured after 96 hrs by PI staining based flow cytometry (reference value: 64%); assay type: functional
[7] = tested on: MIA PaCa-2; assay: Induction of cell arrest in human MIA PaCa-2 cells assessed as viable cells at 100 nM measured after 4 days by Annexin V-FITC and propidium iodide (PI) staining based assay (reference value: 94.9%); assay type: functional; conditions: MIA PaCa-2, 96 h, time 4 day, read-out: Activity
[8] = tested on: MIA PaCa-2; assay: Induction of cell arrest in human MIA PaCa-2 cells assessed as early apoptotic cells at 100 nM measured after 4 days by Annexin V-FITC and propidium iodide (PI) staining based assay (reference value: 1.07%); assay type: functional; conditions: time 4 day
[9] = tested on: MIA PaCa-2; assay: Inhibition of RNA pol II in human MIA PaCa-2 cells assessed as effect on 25S RNA level at 0.1 to 1 uM measured after 12 hrs by RT-qPCR analysis; assay type: cell-based; conditions: dose 0.1-1 µM
[10] = Toxicity in BALB/c mouse xenografted with human MIA PaCa-2 cells assessed as change in body weight at 25 to 100 mg/kg, iv once daily for 25 consecutive day after 2 weeks of cells injection; assay type: organism-based; conditions: in vivo, 600 h, dose 25-100 mg/kg, time 25 day
[11] = tested on: MIA PaCa-2; assay: Reduction in maximal oxygen consumption rate (OCR) in human MIA PaCa-2 cells incubated for 168 hrs; assay type: functional, cell-based; conditions: dose 1-200 nM
[12] = tested on: MIA PaCa-2; assay: Induction of cell arrest in human MIA PaCa-2 cells assessed as accumulation of cells at G2 phase at 200 nM measured after 96 hrs by PI staining based flow cytometry (reference value: 11.2%); assay type: functional
[13] = tested on: MIA PaCa-2; assay: In vivo antitumor activity against human MIA PaCa-2 cells xenografted in BALB/c mouse assessed as reduction in tumor weight at 100 mg/kg, iv once daily for 25 consecutive day after 2 weeks of cells injection relative to control; assay type: functional; conditions: MIA PaCa-2, 600 h, time 25 day
[14] = tested on: MIA PaCa-2; assay: Inhibition of colony formation in human MIA PaCa-2 cells assessed as decrease in size of colony at 5 nM incubated for 14 days by crystal violet staining based assay; assay type: functional, cell-based; conditions: time 14.0 day
[15] = tested on: MIA PaCa-2; assay: Induction of cell arrest in human MIA PaCa-2 cells assessed as early apoptotic cells at 25 nM measured after 4 days by Annexin V-FITC and propidium iodide (PI) staining based assay (reference value: 1.07%); assay type: functional; conditions: time 4 day
[16] = Antiproliferative activity against human […] cells assessed as cell viability measured after 168 hrs incubation by SRB assay; assay type: functional, cell-based
[17] = tested on: MIA PaCa-2; assay: Induction of cell arrest in human MIA PaCa-2 cells assessed as accumulation of cells at G1 phase at 500 nM measured after 96 hrs by PI staining based flow cytometry (reference value: 64%); assay type: functional
[18] = tested on: MIA PaCa-2; assay: Inhibition of RNA pol I in human MIA PaCa-2 cells assessed as effect on 18S RNA level at 0.1 to 1 uM measured after 12 hrs by RT-qPCR analysis; assay type: cell-based; conditions: dose 0.1-1 µM
[19] = tested on: MIA PaCa-2; assay: Effect on SDHB protein complexes in human MIA PaCa-2 cells reduction in NDUFB8 protein level at 0.01 to 10 uM by Western blot analysis; assay type: functional, cell-based; conditions: dose 0.01-10 µM
[20] = tested on: MIA PaCa-2; assay: Antiproliferative activity against human MIA PaCa-2 cells assessed as cell viability measured after 168 hrs incubation by SRB assay; assay type: functional, cell-based; conditions: MIA PaCa-2, 168 h
[21] = tested on: MIA PaCa-2; assay: Inhibition of mitochondria coded ubiquinone oxidoreductase core subunit 1 (ND I) transcript level in human MIA PaCa-2 cells measured after 12 to 36 hrs of compound removal by RT-qPCR analysis; assay type: functional; conditions: time 12-36 hrs
[22] = tested on: MIA PaCa-2; assay: Induction of apoptosis in human MIA PaCa-2 cells xenografted in BALB/c mouse at 25 to 100 mg/kg, iv once daily for 25 consecutive day after 2 weeks of cells injection by TUNEL staining based analysis; assay type: functional, organism-based; conditions: dose 25-100 mg/kg
[23] = tested on: MIA PaCa-2; assay: Induction of intracellular ROS generation in human MIA PaCa-2 cells at 0.1 to 5 uM incubated for 96 hrs by DCFH-DA staining based flow cytometry; assay type: functional, cell-based; conditions: dose 0.1-5 µM
[24] = biological target: DNA-directed RNA polymerase, mitochondrial (Homo sapiens) (UniProt O00411); assay: Inhibition of human POLRMT in human MIA PaCa-2 cells assessed as mitochondria coded ubiquinone oxidoreductase core subunit 1 (ND I) transcript level at 500 nM measured after 24 hrs by RT-qPCR analysis relative to control; set-up: scale not given: the % may be the effect or the level left
[25] = tested on: MIA PaCa-2; assay: Down-regulation of COX1 gene expression in human MIA PaCa-2 cells at 0.1 to 1 uM measured after 12 hrs by RT-qPCR analysis; assay type: functional, cell-based; conditions: dose 0.1-1 µM
[26] = biological target: DNA-directed RNA polymerase, mitochondrial (Homo sapiens) (UniProt O00411); assay: Inhibition of human POLRMT in human MIA PaCa-2 cells assessed as inhibition of mitochondria coded ubiquinone oxidoreductase core subunit 1 (ND I) transcript level measured after 12 hrs by RT-qPCR analysis; conditions: dose 0.001-5 µM
[27] = tested on: MIA PaCa-2; assay: Effect on ATP5A protein complexes in human MIA PaCa-2 cells reduction in NDUFB8 protein level at 0.01 to 10 uM by Western blot analysis; assay type: functional, cell-based; conditions: dose 0.01-10 µM
[28] = tested on: MIA PaCa-2; assay: Induction of cell arrest in human MIA PaCa-2 cells assessed as viable cells at 500 nM measured after 4 days by Annexin V-FITC and propidium iodide (PI) staining based assay (reference value: 94.9%); assay type: functional; conditions: MIA PaCa-2, 96 h, time 4 day, read-out: Activity
[29] = tested on: MIA PaCa-2; assay: Induction of cell arrest in human MIA PaCa-2 cells assessed as late apoptotic cells at 500 nM measured after 4 days by Annexin V-FITC and propidium iodide (PI) staining based assay (reference value: 3.23%); assay type: functional; conditions: time 4 day
[30] = tested on: MIA PaCa-2; assay: Induction of cell arrest in human MIA PaCa-2 cells assessed as early apoptotic cells at 500 nM measured after 4 days by Annexin V-FITC and propidium iodide (PI) staining based assay (reference value: 1.07%); assay type: functional; conditions: time 4 day

DNA-directed RNA polymerase, mitochondrial (Homo sapiens), sequence (O00411 whole entry): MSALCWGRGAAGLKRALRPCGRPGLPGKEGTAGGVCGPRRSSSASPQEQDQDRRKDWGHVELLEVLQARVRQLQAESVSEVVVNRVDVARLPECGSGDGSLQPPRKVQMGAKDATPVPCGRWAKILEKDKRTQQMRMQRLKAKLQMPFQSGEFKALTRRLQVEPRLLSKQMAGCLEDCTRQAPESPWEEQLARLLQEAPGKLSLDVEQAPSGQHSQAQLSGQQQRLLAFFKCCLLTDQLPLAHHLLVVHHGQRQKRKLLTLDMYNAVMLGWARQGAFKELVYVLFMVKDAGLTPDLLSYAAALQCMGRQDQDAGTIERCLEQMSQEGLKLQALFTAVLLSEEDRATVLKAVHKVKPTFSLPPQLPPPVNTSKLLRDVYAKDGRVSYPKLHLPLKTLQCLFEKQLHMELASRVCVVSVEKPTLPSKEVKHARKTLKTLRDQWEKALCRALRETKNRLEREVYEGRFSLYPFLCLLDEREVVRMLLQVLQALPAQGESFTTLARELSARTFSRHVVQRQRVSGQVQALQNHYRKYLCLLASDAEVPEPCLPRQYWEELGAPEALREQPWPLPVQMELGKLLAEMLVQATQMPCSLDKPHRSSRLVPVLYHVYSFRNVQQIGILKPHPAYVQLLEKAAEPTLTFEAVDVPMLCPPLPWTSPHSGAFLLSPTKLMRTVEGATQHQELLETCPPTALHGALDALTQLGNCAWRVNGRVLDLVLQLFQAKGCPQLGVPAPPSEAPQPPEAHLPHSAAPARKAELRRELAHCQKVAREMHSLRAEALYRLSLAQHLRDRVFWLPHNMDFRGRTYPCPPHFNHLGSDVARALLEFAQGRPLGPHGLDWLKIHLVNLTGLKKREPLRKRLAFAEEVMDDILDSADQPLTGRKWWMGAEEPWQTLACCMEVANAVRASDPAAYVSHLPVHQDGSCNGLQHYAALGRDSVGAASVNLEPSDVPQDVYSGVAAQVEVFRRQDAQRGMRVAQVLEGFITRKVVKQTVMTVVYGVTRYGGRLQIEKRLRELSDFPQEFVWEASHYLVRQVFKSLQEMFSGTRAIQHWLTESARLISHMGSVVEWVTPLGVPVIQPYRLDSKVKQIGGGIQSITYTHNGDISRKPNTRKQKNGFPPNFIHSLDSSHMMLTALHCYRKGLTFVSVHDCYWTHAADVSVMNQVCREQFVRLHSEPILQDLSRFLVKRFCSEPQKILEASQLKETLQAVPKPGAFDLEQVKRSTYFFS

CCN(CC)C(=O)[C@@H](C)Oc1cc2oc(=O)cc(-c3ccccc3C)c2cc1F
Activity [1]: Non-Toxic
viability at 0.2 µM [2]: 94.2%
IC50 [3]: 198 nM
Activity [4]: 0.94%
Activity [5]: 4.02%
Activity [6]: 65.5%
viability at 0.1 µM [7]: 94.9%
Activity [8]: 0.57%
inhibition [9]: inactive
Activity [10]: Non-Toxic
Activity [11]: Dose-Dependent Effect
Activity [12]: 13%
inhibition in vivo at 100 mg/kg [13]: 64.5%
inhibition [14]: Active
Activity [15]: 1.4%
IC50 [16]: 4 nM
Activity [17]: 63.4%
inhibition [18]: inactive
Activity [19]: inactive
IC50 [20]: 5 nM
inhibition [21]: Active
Activity [22]: inactive
Activity [23]: inactive
Activity [24]: 9%
Activity [25]: Active
inhibition [26]: Dose-Dependent Effect
Activity [27]: inactive
viability at 0.5 µM [28]: 94.3%
Activity [29]: 3.69%
Activity [30]: 0.77%
